Molecules are shown by their SMILES.

This experiment deals with MV-4-11 cells. Briefly: Gene expression microarray analysis (Affymetrix PrimeView) and GSEA. It counts as cell-based, human. Further details: RFU PODN (11730768_x_at) / Fold change /veh PODN (11730768_x_at) / RFU LINC00158 (11744669_a_at) / Fold change /veh LINC00158 (11744669_a_at) / RFU DUSP10 (11751237_a_at) / Fold change /veh DUSP10 (11751237_a_at) / RFU ID3 (11757404_x_at) / Fold change /veh ID3 (11757404_x_at) / RFU PLEKHG5 (11737974_s_at) / Fold change /veh PLEKHG5 (11737974_s_at) / RFU LRRC4B (11730491_at) / Fold change /veh LRRC4B (11730491_at) / RFU GIMAP4 (11747438_a_at) / Fold change /veh GIMAP4 (11747438_a_at) / RFU KRT8 (11758183_x_at) / Fold change /veh KRT8 (11758183_x_at) / RFU CNN1 (11734310_a_at) / Fold change /veh CNN1 (11734310_a_at) / RFU VPS37D (11726825_at) / Fold change /veh VPS37D (11726825_at) / RFU C10orf10 (11716522_x_at) / Fold change /veh C10orf10 (11716522_x_at) / RFU KIR2DL2 /// KIR2DL4 /// KIR2DL5A /// KIR2DL5B /// KIR2DS1 /// KIR2DS2 /// KIR2DS3 /// KIR2DS4 /// KIR3DL3 /// KIR3DL3 /// KIR3DS1 (11738374_at) / Fold change /veh KIR2DL2 /// KIR2DL4 /// KIR2DL5A /// KIR2DL5B /// KIR2DS1 /// KIR2DS2 /// KIR2DS3 /// KIR2DS4 /// KIR3DL3 /// KIR3DL3 /// KIR3DS1 (11738374_at) / RFU C1QL1 (11718748_at) / Fold change /veh C1QL1 (11718748_at) / RFU TMPRSS4 (11747572_a_at) / Fold change /veh TMPRSS4 (11747572_a_at) / RFU HAMP (11756126_x_at) / Fold change /veh HAMP (11756126_x_at) / RFU RNFT2 (11725882_a_at) / Fold change /veh RNFT2 (11725882_a_at) / RFU NR4A2 (11747474_a_at) / Fold change /veh NR4A2 (11747474_a_at) / RFU ABCC12 (11746883_a_at) / Fold change /veh ABCC12 (11746883_a_at) / RFU TMEM136 (11760407_x_at) / Fold change /veh TMEM136 (11760407_x_at) / RFU CLDN22 /// WWC2 (11732394_at) / Fold change /veh CLDN22 /// WWC2 (11732394_at) / RFU HLA-DPB1 (11760878_x_at) / Fold change /veh HLA-DPB1 (11760878_x_at) / RFU SPINT1 (11716480_a_at) / Fold change /veh SPINT1 (11716480_a_at) / RFU GAP43 (11754022_s_at) / Fold change /veh GAP43 (11754022_s_at) / RFU A4GNT (11735810_at) / Fold change /veh A4GNT (11735810_at) / RFU PRB3 (11715151_x_at) / Fold change /veh PRB3 (11715151_x_at) / RFU TUBB4B (11761932_at) / Fold change /veh TUBB4B (11761932_at) / RFU CAPN14 (11732068_a_at) / Fold change /veh CAPN14 (11732068_a_at) / RFU TMCC2 (11721928_a_at) / Fold change /veh TMCC2 (11721928_a_at) / RFU IRGQ (11745062_a_at) / Fold change /veh IRGQ (11745062_a_at) / RFU FAM174B (11720279_a_at) / Fold change /veh FAM174B (11720279_a_at) / RFU TMPRSS4 (11748680_a_at) / Fold change /veh TMPRSS4 (11748680_a_at) / RFU FAM212B (11763350_a_at) / Fold change /veh FAM212B (11763350_a_at) / RFU PLEKHG5 (11743358_a_at) / Fold change /veh PLEKHG5 (11743358_a_at) / RFU ZSCAN30 (11745921_a_at) / Fold change /veh ZSCAN30 (11745921_a_at) / RFU CMKLR1 (11741424_a_at) / Fold change /veh CMKLR1 (11741424_a_at) / RFU LOC101060620 /// MAPK8IP1 (11723275_at) / Fold change /veh LOC101060620 /// MAPK8IP1 (11723275_at) / RFU SPTSSB (11747773_x_at) / Fold change /veh SPTSSB (11747773_x_at) / RFU PRSS12 (11739890_at) / Fold change /veh PRSS12 (11739890_at) / RFU BIN1 (11741810_x_at) / Fold change /veh BIN1 (11741810_x_at) / RFU WNT11 (11732464_a_at) / Fold change /veh WNT11 (11732464_a_at) / RFU C10orf10 (11716521_a_at) / Fold change /veh C10orf10 (11716521_a_at) / RFU C5orf56 (11738089_at) / Fold change /veh C5orf56 (11738089_at) / RFU CYB561 (11721691_x_at) / Fold change /veh CYB561 (11721691_x_at) / RFU ANKRD19P (11752326_a_at) / Fold change /veh ANKRD19P (11752326_a_at) / RFU OR2T12 /// OR2T33 /// OR2T8 (11738714_s_at) / Fold change /veh OR2T12 /// OR2T33 /// OR2T8 (11738714_s_at) / RFU VCAN (11748164_a_at) / Fold change /veh VCAN (11748164_a_at) / RFU JSRP1 (11732532_at) / Fold change /veh JSRP1 (11732532_at) / RFU KRTAP10-11 (11738290_x_at) / Fold change /veh KRTAP10-11 (11738290_x_at) / RFU MYO3A (11730013_a_at) / Fold change /veh MYO3A (11730013_a_at) / RFU EBF3 (11725865_a_at) / Fold change /veh EBF3 (11725865_a_at) / RFU CAMK2N1 (11719241_x_at) / Fold change /veh CAMK2N1 (11719241_x_at) / RFU C5orf56 (11738088_a_at) / Fold change /veh C5orf56 (11738088_a_at) / RFU OLFML3 (11715873_a_at) / Fold change /veh OLFML3 (11715873_a_at) / RFU LOC100653217 /// NTM (11731650_a_at) / Fold change /veh LOC100653217 /// NTM (11731650_a_at) / RFU MAPK11 (11762145_a_at) / Fold change /veh MAPK11 (11762145_a_at) / RFU FIZ1 (11724087_x_at) / Fold change /veh FIZ1 (11724087_x_at) / RFU OASL (11726364_x_at) / Fold change /veh OASL (11726364_x_at) / RFU SOX15 (11748057_x_at) / Fold change /veh SOX15 (11748057_x_at) / RFU CD79A (11719716_a_at) / Fold change /veh CD79A (11719716_a_at) / RFU HIST1H1D (11736915_at) / Fold change /veh HIST1H1D (11736915_at) / RFU CASKIN2 (11723855_a_at) / Fold change /veh CASKIN2 (11723855_a_at) / RFU LOC730098 (11760151_x_at) / Fold change /veh LOC730098 (11760151_x_at) / RFU OR4N2 (11742367_at) / Fold change /veh OR4N2 (11742367_at) / RFU PRRT2 (11749266_a_at) / Fold change /veh PRRT2 (11749266_a_at) / RFU SNX32 (11753110_a_at) / Fold change /veh SNX32 (11753110_a_at) / RFU CDHR5 (11726645_a_at) / Fold change /veh CDHR5 (11726645_a_at) / RFU RCAN1 (11760418_a_at) / Fold change /veh RCAN1 (11760418_a_at) / RFU FAM167A (11723789_a_at) / Fold change /veh FAM167A (11723789_a_at) / RFU FAM26E (11764081_at) / Fold change /veh FAM26E (11764081_at) / RFU ISYNA1 (11749810_s_at) / Fold change /veh ISYNA1 (11749810_s_at) / RFU ACY1 (11761880_at) / Fold change /veh ACY1 (11761880_at) / RFU 11764098_at / Fold change /veh 11764098_at / RFU SAMD14 (11745864_x_at) / Fold change /veh SAMD14 (11745864_x_at) / RFU NPB (11741838_a_at) / Fold change /veh NPB (11741838_a_at) / RFU TMPRSS6 (11731388_a_at) / Fold change /veh TMPRSS6 (11731388_a_at) / RFU KRTAP10-2 (11738614_at) / Fold change /veh KRTAP10-2 (11738614_at) / RFU ARHGAP8 /// PRR5-ARHGAP8 (11727945_x_at) / Fold change /veh ARHGAP8 /// PRR5-ARHGAP8 (11727945_x_at) / RFU KRTAP5-7 /// NADSYN1 (11734609_at) / Fold change /veh KRTAP5-7 /// NADSYN1 (11734609_at) / RFU RASL12 (11751679_a_at) / Fold change /veh RASL12 (11751679_a_at) / RFU CDKN2B (11736163_a_at) / Fold change /veh CDKN2B (11736163_a_at) / RFU PRF1 (11729649_at) / Fold change /veh PRF1 (11729649_at) / RFU, ZNF638 /// ZNF638-IT1 / Fold change vs veh, ZNF638 /// ZNF638-IT1 / RFU, PANK3 / Fold change vs veh, PANK3 / RFU, SH3YL1 / Fold change vs veh, SH3YL1 / RFU, ZEB2 / Fold change vs veh, ZEB2 / RFU, NRIP1 / Fold change vs veh, NRIP1 / RFU, PTTG1IP / Fold change vs veh, PTTG1IP / RFU, CAPN2 / Fold change vs veh, CAPN2 / RFU, MED14 / Fold change vs veh, MED14 / RFU, SNORA58 / Fold change vs veh, SNORA58 / RFU, C1orf63 / Fold change vs veh, C1orf63 / RFU, LRRFIP1 / Fold change vs veh, LRRFIP1 / RFU, NDUFAF7 / Fold change vs veh, NDUFAF7 / RFU, SLC12A2 / Fold change vs veh, SLC12A2 / RFU, IBTK / Fold change vs veh, IBTK / RFU, ESF1 / Fold change vs veh, ESF1 / Fold change vs veh, TMEM50B / RFU, TAOK1 / Fold change vs veh, TAOK1 / RFU, ACBD3 / Fold change vs veh, ACBD3 / RFU, TMA16 / Fold change vs veh, TMA16 / RFU, RWDD3 / Fold change vs veh, RWDD3 / RFU, BCAT1 / Fold change vs veh, BCAT1 / RFU, EDEM3 / Fold change vs veh, EDEM3 / RFU, TMEM33 / Fold change vs veh, TMEM33 / RFU, WDR75 / Fold change vs veh, WDR75 / RFU, AHCTF1 / Fold change vs veh, AHCTF1 / RFU, TFRC / Fold change vs veh, TFRC / RFU, ZDHHC17 / Fold change vs veh, ZDHHC17 / RFU, NOM1 / Fold change vs veh, NOM1 / RFU, ARL8B / Fold change vs veh, ARL8B / RFU, ZBTB11 / Fold change vs veh, ZBTB11 / RFU, TAMM41 / Fold change vs veh, TAMM41 / RFU, KIAA1704 /// LOC100996395 / Fold change vs veh, KIAA1704 /// LOC100996395 / RFU, ING1 / Fold change vs veh, ING1 / RFU, TRMT61B / Fold change vs veh, TRMT61B / RFU, FUBP3 / Fold change vs veh, FUBP3 / RFU, TP53 / Fold change vs veh, TP53 / RFU, TNKS2 / Fold change vs veh, TNKS2 / RFU, ZFP14 / Fold change vs veh, ZFP14 / RFU, ACTR2 / Fold change vs veh, ACTR2 / RFU, PPP3R1 / Fold change vs veh, PPP3R1 / RFU, PIK3R1 / Fold change vs veh, PIK3R1 / RFU, HNRNPA1 / Fold change vs veh, HNRNPA1 / RFU, RNF170 / Fold change vs veh, RNF170 / RFU, ZNF28 / Fold change vs veh, ZNF28 / RFU, RNGTT / Fold change vs veh, RNGTT / RFU, OGT / Fold change vs veh, OGT / RFU, BRD1 / Fold change vs veh, BRD1 / RFU, MARS / Fold change vs veh, MARS / RFU, ZNF655 / Fold change vs veh, ZNF655 / RFU, FAHD1 / Fold change vs veh, FAHD1 / RFU, BDP1 / Fold change vs veh, BDP1 / RFU, LRRCC1 / Fold change vs veh, LRRCC1 / RFU, ARID1A / Fold change vs veh, ARID1A / RFU, ZNF146 / Fold change vs veh, ZNF146 / RFU, ZNF330 / Fold change vs veh, ZNF330 / RFU, GPN3 / Fold change vs veh, GPN3 / RFU, C9orf123 / Fold change vs veh, C9orf123 / RFU, N4BP2L2 / Fold change vs veh, N4BP2L2 / RFU, ARFIP1 / Fold change vs veh, ARFIP1 / RFU, FAM179B / Fold change vs veh, FAM179B / RFU, BCL10 / Fold change vs veh, BCL10 / RFU, UHRF1BP1L / Fold change vs veh, UHRF1BP1L / RFU, BET1 / Fold change vs veh, BET1 / RFU, CNOT2 / Fold change vs veh, CNOT2 / RFU, ZNF268 / Fold change vs veh, ZNF268 / Fold change vs veh, ZNF507 / RFU, DGCR2 / Fold change vs veh, DGCR2 / RFU, WDSUB1 / Fold change vs veh, WDSUB1 / Fold change vs veh, HSP90B1 /// MIR3652 / RFU, ADSS / Fold change vs veh, ADSS / RFU, GK / Fold change vs veh, GK / RFU, ZNF148 / Fold change vs veh, ZNF148 / RFU, TAF9 / Fold change vs veh, TAF9 / RFU, SLC1A5 / Fold change vs veh, SLC1A5 / RFU, SLMO2 / Fold change vs veh, SLMO2 / RFU, ABCC4 / Fold change vs veh, ABCC4 / RFU, LOC101060439 /// RAP1B / Fold change vs veh, LOC101060439 /// RAP1B / RFU, RFX7 / Fold change vs veh, RFX7 / RFU, GTPBP10 / Fold change vs veh, GTPBP10 / RFU, CNEP1R1 / Fold change vs veh, CNEP1R1 / RFU, BIVM-ERCC5 /// ERCC5 / Fold change vs veh, BIVM-ERCC5 /// ERCC5 / RFU, ILF3 / Fold change vs veh, ILF3 / RFU 11762660_at / Fold change /veh 11762660_at / RFU VCAN (11757783_s_at) / Fold change /veh VCAN (11757783_s_at) / RFU DDX43 (11728927_at) / Fold change /veh DDX43 (11728927_at) / RFU KRT8 (11758188_x_at) / Fold change /veh KRT8 (11758188_x_at) / RFU NKD1 (11759106_at) / Fold change /veh NKD1 (11759106_at) / RFU SRD5A1 (11742802_a_at) / Fold change /veh SRD5A1 (11742802_a_at) / RFU TPSAB1 /// TPSB2 (11721975_s_at) / Fold change /veh TPSAB1 /// TPSB2 (11721975_s_at) / RFU GSTM3 (11746129_a_at) / Fold change /veh GSTM3 (11746129_a_at) / RFU IL23R (11737362_x_at) / Fold change /veh IL23R (11737362_x_at) / RFU TMEM51 (11727254_a_at) / Fold change /veh TMEM51 (11727254_a_at) / RFU PIWIL2 (11732686_x_at) / Fold change /veh PIWIL2 (11732686_x_at) / RFU ORM1 (11744905_x_at) / Fold change /veh ORM1 (11744905_x_at) / RFU CCDC152 (11743942_at) / Fold change /veh CCDC152 (11743942_at) / RFU ECM1 (11717891_a_at) / Fold change /veh ECM1 (11717891_a_at) / RFU IL23R (11748794_a_at) / Fold change /veh IL23R (11748794_a_at) / RFU TNFAIP8L3 (11732012_x_at) / Fold change /veh TNFAIP8L3 (11732012_x_at) / RFU MBOAT4 (11741988_at) / Fold change /veh MBOAT4 (11741988_at) / RFU 11764193_at / Fold change /veh 11764193_at / RFU TMEM53 (11763286_at) / Fold change /veh TMEM53 (11763286_at) / RFU MAGEB2 (11727129_at) / Fold change /veh MAGEB2 (11727129_at) / RFU TMEM200A (11744735_a_at) / Fold change /veh TMEM200A (11744735_a_at) / RFU CCDC152 (11751479_a_at) / Fold change /veh CCDC152 (11751479_a_at) / RFU FAM211A (11726209_a_at) / Fold change /veh FAM211A (11726209_a_at) / RFU RGS16 (11746705_a_at) / Fold change /veh RGS16 (11746705_a_at) / RFU VCAN (11755009_s_at) / Fold change /veh VCAN (11755009_s_at) / RFU RHOB (11743442_s_at) / Fold change /veh RHOB (11743442_s_at) / RFU RGS16 (11720943_a_at) / Fold change /veh RGS16 (11720943_a_at) / RFU RGS16 (11720944_at) / Fold change /veh RGS16 (11720944_at) / RFU, VPS4B / Fold change vs veh, VPS4B / RFU, CREB1 / Fold change vs veh, CREB1 / RFU, DNAJC13 / Fold change vs veh, DNAJC13 / RFU, GNAQ / Fold change vs veh, GNAQ / RFU, CDK5R1 / Fold change vs veh, CDK5R1 / RFU, ZRANB3 / Fold change vs veh, ZRANB3 / RFU, CUL4A / Fold change vs veh, CUL4A / RFU, CCNY / Fold change vs veh, CCNY / RFU, UFL1 / Fold change vs veh, UFL1 / RFU, COG3 / Fold change vs veh, COG3 / RFU, DIAPH2 / Fold change vs veh, DIAPH2 / RFU, SKA2 / Fold change vs veh, SKA2 / RFU, AFF3 / Fold change vs veh, AFF3 / RFU, LMF1 / Fold change vs veh, LMF1 / RFU, IPO11 / Fold change vs veh, IPO11 / RFU, DFFB / Fold change vs veh, DFFB / RFU, FOXP1 / Fold change vs veh, FOXP1 / RFU, CARD8 / Fold change vs veh, CARD8 / RFU, STRN3 / Fold change vs veh, STRN3 / RFU, ADK / Fold change vs veh, ADK / RFU, RASSF2 / Fold change vs veh, RASSF2 / RFU, WIPF1 / Fold change vs veh, WIPF1 / RFU, LARP1B / Fold change vs veh, LARP1B / RFU, RASA1 / Fold change vs veh, RASA1 / RFU, RB1 / Fold change vs veh, RB1 / RFU, PPFIA1 / Fold change vs veh, PPFIA1 / RFU, MAT2A / Fold change vs veh, MAT2A / RFU, CCT5 / Fold change vs veh, CCT5 / RFU, WDR92 / Fold change vs veh, WDR92 / RFU, CUX1 / Fold change vs veh, CUX1 / RFU, TTC7A / Fold change vs veh, TTC7A / RFU, TMEM135 / Fold change vs veh, TMEM135 / RFU, DEPTOR / Fold change vs veh, DEPTOR / RFU, CPM / Fold change vs veh, CPM / RFU, DNAJB6 / Fold change vs veh, DNAJB6 / RFU, CACNA2D3 / Fold change vs veh, CACNA2D3 / RFU, DTX4 / Fold change vs veh, DTX4 / RFU, TFCP2 / Fold change vs veh, TFCP2 / RFU, GMCL1 /// GMCL1P1 / Fold change vs veh, GMCL1 /// GMCL1P1 / RFU, AEBP2 / Fold change vs veh, AEBP2 / RFU, SNHG1 /// SNORD22 /// SNORD25 /// SNORD26 /// SNORD27 /// SNORD28 /// SNORD29 /// SNORD31 / Fold change vs veh, SNHG1 /// SNORD22 /// SNORD25 /// SNORD26 /// SNORD27 /// SNORD28 /// SNORD29 /// SNORD31 / Fold change (Aza/veh), C12orf56 (ProbeSet 11735607_a_at) / Fold change (ACY-1035/veh), C12orf56 (ProbeSet 11735607_a_at) / Fold change (Aza/veh), FGFR1OP (ProbeSet 11751329_s_at) / Fold change (ACY-1035/veh), FGFR1OP (ProbeSet 11751329_s_at) / Fold change (Aza/veh), VPS36 (ProbeSet 11739960_a_at) / Fold change (ACY-1035/veh), VPS36 (ProbeSet 11739960_a_at) / RFU SYPL1 (11715823_x_at) / Fold change /veh SYPL1 (11715823_x_at) / RFU IGFBP7 (11715501_s_at) / Fold change /veh IGFBP7 (11715501_s_at) / RFU REEP3 (11722064_at) / Fold change /veh REEP3 (11722064_at) / RFU IGLL1 (11728026_x_at) / Fold change /veh IGLL1 (11728026_x_at): dose or concentration left out as unconfirmed. The following applies: MV-4-11 cells, 48 hours.

In the case of `Nc1ncn([C@@H]2O[C@H](CO)[C@@H](O)[C@H]2O)c(=O)n1` [azacitidine], the “RFU HIST1H1D (11736915_at)” value stood at 16.89 RFU.

For the origin of these results see PMC5218480 (PLoS ONE, 2017).
